Reference: the supplement of paper PMC10307832

Legend:
Assay in all cases: relative viability (nuclei count vs DMSO), 5 days (fraction); higher = more cells survive
[1] = compound: CC(=O)Nc1cccc(-n2c(=O)n(C3CC3)c(=O)c3c(Nc4ccc(I)cc4F)n(C)c(=O)c(C)c32)c1 [Trametinib] + CC1(C)CCC(c2ccc(Cl)cc2)=C(CN2CCN(c3ccc(C(=O)NS(=O)(=O)c4ccc(N[C@H](CCN5CCOCC5)CSc5ccccc5)c(S(=O)(=O)C(F)(F)F)c4)cc3)CC2)C1 [Navitoclax] (partner 0.5 µM)
Summary of the method: (§1)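 Lung cancer cell lines were pin-tool dosed in 1536-well plates on the day after seeding, with either a lone drug or a fixed anchor-drug dose plus five library-drug doses (not always all listed) in √10 steps. Nuclei were counted on 4× images after 5 days. Relative viability is the ratio of treated-well to vehicle-well nuclei counts, with each value a median of duplicate plates.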

[2] = compound: CC(=O)Nc1cccc(-n2c(=O)n(C3CC3)c(=O)c3c(Nc4ccc(I)cc4F)n(C)c(=O)c(C)c32)c1 [Trametinib] + COc1cc2c(Oc3ccc(NC(=O)C4(C(=O)Nc5ccc(F)cc5)CC4)cc3F)ccnc2cc1OCCCN1CCOCC1 [Foretinib] (partner 0.25 µM)
Summary of the method: as §1

[3] = compound: CC(=O)Nc1cccc(-n2c(=O)n(C3CC3)c(=O)c3c(Nc4ccc(I)cc4F)n(C)c(=O)c(C)c32)c1 [Trametinib] + Cc1nc(NC(=O)N2CCC[C@H]2C(N)=O)sc1-c1ccnc(C(C)(C)C(F)(F)F)c1 [Alpelisib] (partner 2 µM)
Summary of the method: as §1

[4] = compound: CN1C=C(C2=CC=CC=C21)/C=C\3/C4=C(C=CC=N4)NC3=O + Nc1nc2[nH]cc(CCc3ccc(C(=O)N[C@@H](CCC(=O)O)C(=O)O)cc3)c2c(=O)[nH]1 [Pemetrexed] (partner 0.2 µM)
Summary of the method: as §1

Cell Line | relative viability ([1]; first compound 0.0025 µM) | relative viability ([1]; first compound 0.007906 µM) | relative viability ([1]; first compound 0.025 µM) | relative viability ([1]; first compound 0.07906 µM) | relative viability ([1]; first compound 0.25 µM) | relative viability ([2]; first compound 0.0025 µM) | relative viability ([2]; first compound 0.007906 µM) | relative viability ([2]; first compound 0.025 µM) | relative viability ([2]; first compound 0.07906 µM) | relative viability ([2]; first compound 0.25 µM) | relative viability ([3]; first compound 0.0025 µM) | relative viability ([3]; first compound 0.007906 µM) | relative viability ([3]; first compound 0.025 µM) | relative viability ([3]; first compound 0.07906 µM) | relative viability ([3]; first compound 0.25 µM) | relative viability ([4]; first compound 0.02 µM) | relative viability ([4]; first compound 0.06325 µM) | relative viability ([4]; first compound 0.2 µM) | relative viability ([4]; first compound 0.6325 µM) | relative viability ([4]; first compound 2 µM)
NCI-H1651 | 1.02 | 0.943 | 0.933 | 0.844 | 0.778 | 0.773 | 0.687 | 0.702 | 0.652 | 0.671 | 0.901 | 0.864 | 0.775 | 0.597 | 0.66 | 0.651 | 0.579 | 0.574 | 0.648 | 0.644
HCC-366 | 0.977 | 0.926 | 0.7 | 0.531 | 0.275 | 0.875 | 0.765 | 0.768 | 0.49 | 0.228 | 0.214 | 0.241 | 0.182 | 0.143 | 0.0782 | 0.148 | 0.142 | 0.196 | 0.155 | 0.133
EKVX | 0.728 | 0.627 | 0.37 | 0.376 | 0.371 | 0.809 | 0.724 | 0.332 | 0.379 | 0.838 | 0.832 | 0.638 | 0.629 | 0.444 | 0.343 | 0.371 | – | – | 0.354 | 0.352
NCI-H1993 | 0.794 | 0.748 | 0.65 | 0.764 | 0.774 | 0.657 | 0.616 | 0.678 | 0.663 | 0.661 | 0.649 | 0.722 | 0.656 | 0.699 | 0.649 | 0.564 | 0.515 | 0.641 | 0.457 | 0.534
NCI-H23 | 0.624 | 0.58 | 0.347 | 0.344 | 0.247 | 0.874 | 0.675 | 0.549 | 0.513 | 0.343 | 0.635 | 0.509 | 0.264 | 0.349 | 0.208 | 0.678 | 0.598 | 0.576 | 0.788 | 0.654
HCC-827 | 1.06 | 0.971 | 1.03 | 0.946 | 0.676 | 1.01 | 0.95 | 0.787 | 0.556 | 0.425 | 1.01 | 0.753 | 0.699 | 0.591 | 0.399 | 0.227 | 0.28 | – | 0.247 | 0.258
PC-3 [JPC-3] | 0.815 | 0.793 | 0.709 | 0.705 | 0.455 | 1 | 0.969 | 0.87 | 0.709 | 0.574 | 0.998 | 0.968 | 0.864 | 0.806 | 0.511 | 0.846 | 1.05 | 1.07 | 0.8 | 0.79
NCI-H1355 | 0.764 | 0.832 | 0.51 | 0.563 | 0.414 | 0.993 | 0.725 | 0.519 | 0.606 | 0.488 | 0.68 | 0.627 | 0.356 | 0.388 | 0.352 | 0.885 | 0.924 | 0.99 | 0.916 | 0.851
NCI-H1975 | 0.999 | 1 | 0.713 | 0.466 | 0.395 | 0.973 | 0.87 | 0.839 | 0.334 | 0.385 | 0.547 | 0.415 | 0.301 | 0.223 | 0.268 | 0.265 | 0.28 | 0.3 | 0.283 | 0.264
NCI-H460 | 1.08 | 0.981 | 0.727 | 0.277 | 0.0346 | 0.942 | 0.816 | 0.549 | 0.21 | 0.11 | 0.417 | 0.146 | 0.115 | 0.0733 | 0.0121 | 0.0583 | 0.0649 | 0.0603 | 0.0702 | 0.0616
EPLC-272H | 0.962 | 0.914 | 0.455 | 0.709 | 0.359 | 0.476 | 0.384 | 0.26 | 0.237 | 0.14 | 0.721 | 0.539 | 0.438 | 0.438 | 0.346 | 0.3 | 0.274 | 0.298 | – | 0.369
SK-LU-1 | 0.971 | 0.929 | 0.65 | 0.337 | 0.296 | 0.649 | 0.697 | 0.505 | 0.406 | 0.208 | 0.966 | 0.841 | 0.7 | 0.361 | 0.226 | 0.736 | 0.919 | 0.898 | 1.03 | 0.946
NCI-H322M | 1.15 | 0.97 | 1.01 | 0.827 | 0.687 | 0.813 | 0.769 | 0.677 | 0.59 | 0.498 | 0.78 | 0.59 | 0.555 | 0.455 | 0.316 | 0.606 | 0.575 | 0.598 | 0.673 | 0.641
NCI-H2405 | 0.732 | 0.515 | 0.48 | 0.423 | 0.305 | 1.08 | 0.874 | 0.903 | 0.72 | 0.563 | 0.599 | 0.42 | 0.339 | 0.379 | 0.315 | 1 | 0.955 | 0.828 | 1.09 | 1.01
NCI-H1666 | 0.613 | 0.64 | 0.375 | 0.456 | 0.393 | 0.892 | 0.758 | 0.709 | 0.685 | 0.59 | 0.697 | 0.501 | 0.465 | 0.331 | 0.306 | 0.896 | 0.861 | 0.847 | 0.765 | 0.737
